Experimental findings from patent publication US8906868B2, “Aminoglycoside derivatives” (Rempex Pharmaceuticals, Inc., priority 2010, dated 2014) are described below.

Values after ≈ are worked out from the molar mass of the structure shown. Read-outs that look alike come from different tables or passages of the source.

Experiment [1] relates to ECM6006 aph(3′)-III. The experiment can be described thus: microbe, parasite or virus in culture. The format is cell-based, Escherichia coli. A digest of the protocol: (§1)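 Broth microdilution per CLSI M7-A7 in cation-adjusted Mueller Hinton broth, 2-fold serial dilutions, inoculum 5×10^5 CFU/ml from overnight colonies. Incubated 18 hours at 35° C. MIC read as turbidity at 600 nm, confirmed visually.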

Experiment [2] deals with ECM6009 aac(3)-II. Nature of the experiment: microbe, parasite or virus in culture. The format is cell-based, Escherichia coli. An outline of the steps: as §1
The subject of experiment [3] is ECM6010 ant(2″)-I. The experiment can be described thus: microbe, parasite or virus in culture. It counts as cell-based, Escherichia coli. An outline of the steps: as §1
Experiment [4] has as its system ECM6011 aph(3′)-I. Nature of the experiment: microbe, parasite or virus in culture. It counts as cell-based, Escherichia coli. An outline of the steps: as §1
Experiment [5] concerns ECM6003 rmtB. The experiment can be described thus: microbe, parasite or virus in culture. It counts as cell-based, Escherichia coli. An outline of the steps:
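Broth microdilution per CLSI M7-A7 in cation-adjusted Mueller Hinton broth with 2-fold serial dilutions and 5×10^5 CFU/ml inoculum. Incubated 18 hours at 35 °C; MIC read by turbidity at 600 nm and confirmed visually.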

Experiment [6] concerns EC1002 aph(3′)-IV. Nature of the experiment: organism not typed. It counts as cell-based. An outline of the steps: as §1
The subject of experiment [7] is EC1001 acc(6′)-Ib. Nature of the experiment: microbe, parasite or virus in culture. It counts as cell-based, Escherichia coli. An outline of the steps: (§2)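 Broth microdilution per CLSI guidelines: compounds serially diluted 2-fold in cation-adjusted Mueller Hinton broth, inoculum 5×10^5 CFU/ml from overnight colonies, 18 hours at 35° C. MIC read by turbidity at 600 nm and confirmed visually.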

The subject of experiment [8] is ECM6007 aac(6′) + aph(2″). The experiment can be described thus: microbe, parasite or virus in culture. The format is cell-based, Escherichia coli. A digest of the protocol: as §2
In experiment [9] the test system is ACM1005 ATCC 19004. Nature of the experiment: MIC, broth microdilution. The format is cell-based, Acinetobacter baumannii. An outline of the steps:
as §2
For orientation: In broth dilution the organism is exposed to a series of concentrations in liquid medium.

For experiment [10], the system named is ACM1006 acc(6′)-Ib. Nature of the experiment: microbe, parasite or virus in culture. It counts as cell-based, Acinetobacter baumannii. An outline of the steps: as §2
The subject of experiment [11] is PAM3072 aac(6′)-II. The experiment can be described thus: microbe, parasite or virus in culture. The format is cell-based, Pseudomonas aeruginosa. An outline of the steps:
as §2

Experiment [12] concerns PAM3073 aac(6′)-I. Nature of the experiment: microbe, parasite or virus in culture. It counts as cell-based, Pseudomonas aeruginosa. A digest of the protocol:
as §2

The subject of experiment [13] is Sa 287 aac(6′) + aph(2″). The experiment can be described thus: microbe, parasite or virus in culture. It counts as cell-based, Staphylococcus aureus. As to the method: To compare microbiological activity of the test compounds, minimum inhibitory concentrations (MIC.s) were determined. Antibiotic MICs were obtained using the broth microdilution method according to Clinical and Laboratory Standards Institute (CLSI) approved guidelines (Methods for dilution antimicrobial susceptibility tests for bacteria that grow aerobically; approved standard—7th ed. CLSI document M7-A7. Clinical and Laboratory Standards Institute, Wayne, Pa., incorporated herein by reference in its entirety). Antibiotics were dissolved as specified by CLSI (Performance standards for antimicrobial susceptibility testing; Seventeenth informational supplement. CLSI document M100-S17. Clinical and Laboratory Standards Institute, Wayne, Pa., incorporated herein by reference in its entirety), and were serially diluted 2-fold in cation adjusted Mueller Hinton Broth (CaMHB) at 2× concentration. Bacterial inoculums were prepared in CaMHB by suspension of a colony from an agar plate that was prepared the previous day to obtain a final concentration of 5×10^5CFU/ml. The plates were incubated for 18 hours at 35° C. […] MIC.s were determined by reading the turbidity of plate wells using a SpectraMax Plus384 plate reader (Molecular Devices, Sunnyvale, Calif., USA) at 600 nm and were confirmed by visual inspection.

Experiment [14] relates to Escherichia coli (ATCC 25922). The experiment can be described thus: MIC, broth microdilution. To be noted: for MIC: Escherichia coli.
In experiment [15] the test system is Staphylococcus aureus (ATCC 29213). Nature of the experiment: MIC, broth microdilution. To be noted: for MIC: Staphylococcus aureus.
In experiment [16] the test system is Klebsiella pneumonia (ATCC 43816). Nature of the experiment: MIC, broth microdilution. The conditions noted are these: Klebsiella pneumoniae, ATCC43816, read-out: Compound MIC on Bacterial Strains: K. pneumonia ATCC 43816.
The subject of experiment [17] is Pseudomonas aeruginosa (ATCC 27853). The experiment can be described thus: MIC, broth microdilution. The conditions noted are these: for MIC: Pseudomonas aeruginosa.
Experiment [18] relates to Acinetobacter baumannii (ATCC 19606). The experiment can be described thus: MIC, broth microdilution. The conditions noted are these: Acinetobacter baumannii, ATCC19606, read-out: Compound MIC on Bacterial Strains: A. baumannii ATCC 19606.

`NC[C@H]1O[C@H](O[C@H]2[C@H](O)[C@@H](O[C@H]3O[C@H](CO)[C@@H](O)[C@H](N)[C@H]3O)[C@H](N)C[C@@H]2N)[C@H](N)C[C@@H]1O` [Tobramycin, reference compound]: the MIC in experiment [1] (Escherichia coli, read-out: Compound MIC on Bacterial Strains: ECM6006 aph(3′)-III) is 1 to 8 µg/mL (≈ 2.14 to 17.1 µM); in [2] (Escherichia coli, read-out: Compound MIC on Bacterial Strains: ECM6009 aac(3)-II) it was > 8 µg/mL; in [3] (Escherichia coli, read-out: Compound MIC on Bacterial Strains: ECM6010 ant(2″)-I) it was > 8 µg/mL; in [4] (Escherichia coli, read-out: Compound MIC on Bacterial Strains: ECM6011 aph(3′)-I), 1 to 8 µg/mL (≈ 2.14 to 17.1 µM); in experiment [5] (Escherichia coli, Table 3, read-out: Compound MIC on Bacterial Strains: ECM6003 rmtB), > 8 µg/mL; in experiment [6] (read-out: Compound MIC on Bacterial Strains: EC1002 aph(3′)-IV), < 1 µg/mL. Moreover, the MIC in experiment [7] (Escherichia coli, Table 4, read-out: Compound MIC on Bacterial Strains: Escherichia coli EC1001 acc(6′)-Ib) was > 8 µg/mL; in experiment [8] (Escherichia coli, 18 h, Table 4, read-out: Compound MIC on Bacterial Strains: Escherichia coli ECM6007 aac(6′) + aph(2″)), > 8 µg/mL; in experiment [9] (Acinetobacter baumannii, ATCC19004, Table 4, read-out: Compound MIC on Bacterial Strains: Acinetobacter baumannii ACM1005 ATCC 19004), < 1 µg/mL; in experiment [10] (Acinetobacter baumannii, Table 4, read-out: Compound MIC on Bacterial Strains: Acinetobacter baumannii ACM1006 acc(6′)-Ib), > 8 µg/mL; in experiment [11] (Pseudomonas aeruginosa, Table 5, read-out: Compound MIC on Bacterial Strains: Pseudomonas aeruginosa PAM3072 aac(6′)-II) it was > 8 µg/mL; in experiment [12] (Pseudomonas aeruginosa, Table 5, read-out: Compound MIC on Bacterial Strains: Pseudomonas aeruginosa PAM3073 aac(6′)-I), > 8 µg/mL. The MIC in [13] (Staphylococcus aureus, 18 h, Table 5, read-out: Compound MIC on Bacterial Strains: Staphylococcus aureus Sa 287 aac(6′) + aph(2″)) was > 8 µg/mL; in experiment [14] (ATCC25922, read-out: Compound MIC on Bacterial Strains: E. coli ATCC 25922), < 1 µg/mL; in experiment [14] (ATCC25922, read-out: Compound MIC on Bacterial Strains: ECM6000 ATCC 25922), < 1 µg/mL; in experiment [14] (ATCC25922, read-out: Compound MIC on Bacterial Strains: Escherichia coli ECM6000 ATCC 25922), < 1 µg/mL; in experiment [15] (ATCC29213, read-out: Compound MIC on Bacterial Strains: S. aureus ATCC 29213, QC strain, Table 2) it was < 1 µg/mL; in experiment [15] (ATCC29213, read-out: Compound MIC on Bacterial Strains: Staphylococcus aureus SAM1000 ATCC 29213, Table 5), < 1 µg/mL. The MIC in experiment [16] was < 1 µg/mL; in [17] (ATCC27853, read-out: Compound MIC on Bacterial Strains: P. aeruginosa ATCC 27853), < 1 µg/mL; in [17] (ATCC27853, read-out: Compound MIC on Bacterial Strains: Pseudomonas aeruginosa PAM3034 ATCC 27853), < 1 µg/mL; in [18], 1 to 8 µg/mL (≈ 2.14 to 17.1 µM).

Regarding Gentamicin C1a [reference compound], in experiment [1], the “Compound MIC on Bacterial Strains: ECM6006 aph(3′)-III” value is on record as “B (key: A: MIC of 1 μg/ml or less; B: MIC of greater than 1 μg/ml to 8 μg/ml; MIC of greater than 8 μg/ml)”. The “Compound MIC on Bacterial Strains: ECM6009 aac(3)-II” value in experiment [2] is reported as “C (key: A: MIC of 1 μg/ml or less; B: MIC of greater than 1 μg/ml to 8 μg/ml; MIC of greater than 8 μg/ml)”. Further, the “Compound MIC on Bacterial Strains: ECM6010 ant(2″)-I” value in [3] was “C (key: A: MIC of 1 μg/ml or less; B: MIC of greater than 1 μg/ml to 8 μg/ml; MIC of greater than 8 μg/ml)”. For the same molecule, in [4], the “Compound MIC on Bacterial Strains: ECM6011 aph(3′)-I” value was “B (key: A: MIC of 1 μg/ml or less; B: MIC of greater than 1 μg/ml to 8 μg/ml; MIC of greater than 8 μg/ml)”. Further, the “Compound MIC on Bacterial Strains: ECM6003 rmtB” value in [5] is recorded as “C (key: A: MIC of 1 μg/ml or less; B: MIC of greater than 1 μg/ml to 8 μg/ml; MIC of greater than 8 μg/ml)”. For the same molecule, in experiment [6], the “Compound MIC on Bacterial Strains: EC1002 aph(3′)-IV” value is reported as “A (key: A: MIC of 1 μg/ml or less; B: MIC of greater than 1 μg/ml to 8 μg/ml; MIC of greater than 8 μg/ml)”. Also, the “Compound MIC on Bacterial Strains: Escherichia coli EC1001 acc(6′)-Ib” value in experiment [7] is recorded as “C (key: A: MIC of 1 μg/ml or less; B: MIC of greater than 1 μg/ml to 8 μg/ml; MIC of greater than 8 μg/ml)”. Moreover, the “Compound MIC on Bacterial Strains: Escherichia coli ECM6007 aac(6′) + aph(2″)” value in experiment [8] is given as “B (key: A: MIC of 1 μg/ml or less; B: MIC of greater than 1 μg/ml to 8 μg/ml; MIC of greater than 8 μg/ml)”. Further, the “Compound MIC on Bacterial Strains: Acinetobacter baumannii ACM1005 ATCC 19004” value in [9] is listed as “A (key: A: MIC of 1 μg/ml or less; B: MIC of greater than 1 μg/ml to 8 μg/ml; MIC of greater than 8 μg/ml)”. In experiment [10], the “Compound MIC on Bacterial Strains: Acinetobacter baumannii ACM1006 acc(6′)-Ib” value was “C (key: A: MIC of 1 μg/ml or less; B: MIC of greater than 1 μg/ml to 8 μg/ml; MIC of greater than 8 μg/ml)”. Besides, in experiment [11], the “Compound MIC on Bacterial Strains: Pseudomonas aeruginosa PAM3072 aac(6′)-II” value is reported as “C (key: A: MIC of 1 μg/ml or less; B: MIC of greater than 1 μg/ml to 8 μg/ml; MIC of greater than 8 μg/ml)”. Besides, the “Compound MIC on Bacterial Strains: Pseudomonas aeruginosa PAM3073 aac(6′)-I” value in [12] is “B (key: A: MIC of 1 μg/ml or less; B: MIC of greater than 1 μg/ml to 8 μg/ml; MIC of greater than 8 μg/ml)”. Moreover, the “Compound MIC on Bacterial Strains: Staphylococcus aureus Sa 287 aac(6′) + aph(2″)” value in experiment [13] was “C (key: A: MIC of 1 μg/ml or less; B: MIC of greater than 1 μg/ml to 8 μg/ml; MIC of greater than 8 μg/ml)”. In experiment [14], the “Compound MIC on Bacterial Strains: ECM6000 ATCC 25922” value is recorded as “A (key: A: MIC of 1 μg/ml or less; B: MIC of greater than 1 μg/ml to 8 μg/ml; MIC of greater than 8 μg/ml)” and the “Compound MIC on Bacterial Strains: Escherichia coli ECM6000 ATCC 25922” value was “A (key: A: MIC of 1 μg/ml or less; B: MIC of greater than 1 μg/ml to 8 μg/ml; MIC of greater than 8 μg/ml)”. The “Compound MIC on Bacterial Strains: Staphylococcus aureus SAM1000 ATCC 29213” value in experiment [15] is reported as “A (key: A: MIC of 1 μg/ml or less; B: MIC of greater than 1 μg/ml to 8 μg/ml; MIC of greater than 8 μg/ml)”. The “Compound MIC on Bacterial Strains: Pseudomonas aeruginosa PAM3034 ATCC 27853” value in experiment [17] is “A (key: A: MIC of 1 μg/ml or less; B: MIC of greater than 1 μg/ml to 8 μg/ml; MIC of greater than 8 μg/ml)”.
